Data on 2 molecules can be found in patent publication US4554274A, “Nb Quaternary derivatives of ajmaline and isoajmaline, methods and intermediate products in the manufacture of their derivatives and method of using same and pharmaceutical compositions thereof” (priority 1979, dated 1985).

Series [1] can be described thus: acute toxicity (LD50) in mice. As to conditions: mouse, in vivo, po; male NMRI-mice, p.o., mortality on 7th day; read-out: LD50 p.o. It counts as in vivo. The procedure: (§1) The acute toxicity of the compounds is determined in male NMRI-mice (body weight range 18-22 g) after oral (p.o.) and intraperitonal (i.p.) administration. The LD50 is defined as that dose in μmol/kg which causes a 50% mortality rate of the test animals on the 7th day after application. The calculation of the LD50 is carried out by probitanalysis (see L. Cavalli-Sforza, Grundbegriffe der Biometric, Gustav Fischer Verlag Stuttgart (1964)).

The test system of series [2] is male Wista rats (aconitine). Description: aconitine infusion in rats, heart rhythm disruption (Raschak). As to conditions: 1/20th of the LD50, concurrent aconitine infusion, time difference vs control. It counts as in vivo. As for the experimental part: To determine the influence of the active ingredient on male Wista rats (weighing 280 to 350 g), infusion with aconitine according to the method of Raschak is carried out (M. Raschak, Arzneim. Forschung (Drug Research) 25 (4) (1975) pp. 639-641). The results are given as the difference (that is, the difference in time as Δ%) between the active substance and a control sample in bringing about a disruption of heart rhythms (extrasystolic (ES), ventricular tachicardiea (VT), chamber flutter (KF)). In the control sample the active ingredient is replaced by a vehicle such as isotonic NaCl-solution or solution medium. The administration of the active ingredient is in a dosage of 1/20th of the LD50 and a constant concurrent infusion per unit of time of aconitine.

Another series relates to isolated left atria. Description: functional refractory period (FRP) and contraction force (CF) in isolated left atria, double stimulus method of Govier. The arrangement: species or system female guinea pigs. The conditions noted are these: for EC (FRP prolonged to 125%) / IC25: Cavia porcellus, 0.3 h, isolated left atria of guinea pig, 18 minutes after application; for EC (FRP prolonged to 125%): read-out: concentration prolonging functional refractory period (FRP) to 125% of starting value; for IC25: read-out: concentration reducing contraction force (CF) to 75% of starting value. As for the experimental part:
The prolongation of the functional refractory period (FRP) and the contraction force (CF) in the isolated left atria of female guinea pigs (albinopirbright-white guinea pigs, body weight range 300-400 g) are determined according to the double stimulus method of Govier (see W. C. Govier, J. Pharmakol, Exp. Ther. 148 (1965) pp. 100-105). The concentrations which are given in the table below are the concentrations in […] which 18 minutes after application leads to a prolongation of the functional refractory period to 125% or respectively to a reduction of the contraction force to 75% of the starting value. Furthermore the ratio between contraction force-reducing dose and functional refractory period-prolonging dose is given. This ratio is an indication of the therapeutic range of the antiarrhythmic effect on the isolated organ (see K. Greef, Verh. Dtsch. Ges. Kreislaufforsch. 35 (1969) pp. 88-97).

For series [3], the system named is male NMRI-mice. The series is described as follows: minimum symptom dose (Campbell and Richter). Type of series: in vivo. The conditions noted are these: i.p., changes in behavior in 2 out of 3 mice. The procedure: The minimum symptom dose is determined in male NMRI-mice (body weight range 18-22 g) according to the procedure of Campbell and Richter (see D. E. S. Campbell and W. Richter, Acta Pharmacol. Toxicol. 25 (1967), pp. 345-363). The minimum symptom dose is defined as that dose in μmol/kg which after i.p. administration causes changes in behavior in 2 out of 3 mice. The minimum symptom dose is a measure for evaluations undesirable side effects.

The subject of series [4] is male NMRI-mice. Description: acute toxicity (LD50) in mice. Type of series: in vivo. The conditions noted are these: i.p., mortality on 7th day. As for the experimental part: as §1

SMILES strings stand for the structures. Counter-ions that a name gives are not always drawn.

For `CCC[N+]12C(O)C(CC)C3CC1C1N(C)c4ccc(Br)cc4C14CC2C3C4O` (stereo not shown) [Example 13.b, Nb-propyl-10-bromoisoajmalinium hydrogen tartrate], in series [1], the LD50 at 168 h stood at 437 µmol/kg. Moreover, in series [2], the “Aconitin-Rat, ES (extrasystolic), Δ %” value is given as “+110%”; the “Aconitin-Rat, KF (chamber flutter), Δ %” value is listed as “+110%”; the “Aconitin-Rat, VT (ventricular tachycardia), Δ %” value is given as “+130%”. Moreover, the “ratio between contraction force-reducing dose and functional refractory period-prolonging dose” value in the series with isolated left atria (CF/FRP, indication of therapeutic range, 18 min) stood at 2.4. In addition, in the series with isolated left atria, the EC (FRP prolonged to 125%) worked out at 0.6 µM and the IC25 was determined as 1.5 µM. Besides, the “Min. Symptom-dose” value with male NMRI-mice [3] was 42 µmol/kg.

As for `CCC1C2CC3C4N(C)c5ccc(Br)cc5C45CC(C2C5O)[N+]3(CC(O)CN2CCCCC2)C1O` (stereo not shown) [Example 22, Nb-(2-hydroxy-3-(1-piperidinyl)propyl)-10-bromoisoajmalinium hydrogen tartrate], in the series on male NMRI-mice [4], the LD50 i.p. turned out to be 168 µmol/kg. Also, the LD50 at 168 h in series [1] was found to be 550 µmol/kg. Moreover, in series [2], the “Aconitin-Rat, ES (extrasystolic), Δ %” value was “+154%”; the “Aconitin-Rat, KF (chamber flutter), Δ %” value is recorded as “+110%”; the “Aconitin-Rat, VT (ventricular tachycardia), Δ %” value was “+121%”. In the series with isolated left atria, the EC (FRP prolonged to 125%) is 8.1 µM and the IC25 came to 3.4 µM. Further, the “Min. Symptom-dose” value in the series on male NMRI-mice [3] was determined as 72 µmol/kg.
